In PMC7413254 (Nature Communications, 2020):
Where two headings read alike, the source gives them in different places.

What was measured:
[1] = test system: non-expressing oocytes; assay: cells; type: cell-based, Xenopus laevis; settings: Xenopus laevis, total [3H]CQ transport; for inhibition at 500 µM: [test solute] = 0.5 mM; for inhibition at 1000 µM: [test solute] = 1 mM; for inhibition at 2000 µM: [test solute] = 2 mM
Procedure, shortened: (§1)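 ND96, pH 5.5, 1.5 h, 27.5 °C; uptake direction acidic outside → oocyte cytosol, mimicking efflux from digestive vacuole. Ice-cold wash stop, 10% SDS lysis, scintillation counting. Ten oocytes/treatment, ≥4 independent experiments.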

[2] = target: T1, PfCRT^3D7 (Plasmodium falciparum, UniProt Q8IBZ9); assay: cell-based; type: cell-based; settings: total [3H]CQ transport; for inhibition at 500 µM: [test solute] = 0.5 mM; for inhibition at 1000 µM: [test solute] = 1 mM; for inhibition at 2000 µM: [test solute] = 2 mM
T1 sequence (Q8IBZ9 59-398): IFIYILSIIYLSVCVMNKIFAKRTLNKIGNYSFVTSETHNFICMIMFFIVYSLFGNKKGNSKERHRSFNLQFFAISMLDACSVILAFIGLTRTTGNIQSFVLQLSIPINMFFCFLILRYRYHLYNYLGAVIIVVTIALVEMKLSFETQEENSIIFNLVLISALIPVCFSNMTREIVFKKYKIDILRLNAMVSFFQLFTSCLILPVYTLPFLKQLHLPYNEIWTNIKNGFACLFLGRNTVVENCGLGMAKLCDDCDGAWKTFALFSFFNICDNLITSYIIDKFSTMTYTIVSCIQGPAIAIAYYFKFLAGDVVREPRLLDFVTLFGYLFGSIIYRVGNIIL
Procedure, shortened: as §1

[3] = target: T2, PfCRT^Dd2 (Plasmodium falciparum, UniProt Q9N623, A220S/I356T/K76T/M74I/N326S/N75E/Q271E/R371I); assay: [3H]CQ uptake into Xenopus oocytes, cis-inhibition by unlabelled solute; type: cell-based
T2 sequence (Q9N623 whole entry A220S/I356T/K76T/M74I/N326S/N75E/Q271E/R371I): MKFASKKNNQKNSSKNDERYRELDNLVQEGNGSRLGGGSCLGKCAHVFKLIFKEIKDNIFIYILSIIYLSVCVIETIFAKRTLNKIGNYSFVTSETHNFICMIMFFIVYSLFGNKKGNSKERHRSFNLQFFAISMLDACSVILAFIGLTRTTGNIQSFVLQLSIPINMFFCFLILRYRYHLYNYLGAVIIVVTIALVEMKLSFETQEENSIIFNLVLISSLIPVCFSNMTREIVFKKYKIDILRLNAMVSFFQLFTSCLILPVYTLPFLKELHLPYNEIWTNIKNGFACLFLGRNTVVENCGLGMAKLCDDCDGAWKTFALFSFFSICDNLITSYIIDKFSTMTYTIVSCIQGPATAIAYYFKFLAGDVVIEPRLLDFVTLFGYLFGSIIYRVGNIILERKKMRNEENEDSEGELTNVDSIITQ
Procedure, shortened: as §1

[4] = target: T3, PfCRT^Ecu1110 (Plasmodium falciparum, UniProt Q9N623, A220S/I356L/K76T/N326D); assay: as above; type: cell-based
T3 sequence (Q9N623 whole entry A220S/I356L/K76T/N326D): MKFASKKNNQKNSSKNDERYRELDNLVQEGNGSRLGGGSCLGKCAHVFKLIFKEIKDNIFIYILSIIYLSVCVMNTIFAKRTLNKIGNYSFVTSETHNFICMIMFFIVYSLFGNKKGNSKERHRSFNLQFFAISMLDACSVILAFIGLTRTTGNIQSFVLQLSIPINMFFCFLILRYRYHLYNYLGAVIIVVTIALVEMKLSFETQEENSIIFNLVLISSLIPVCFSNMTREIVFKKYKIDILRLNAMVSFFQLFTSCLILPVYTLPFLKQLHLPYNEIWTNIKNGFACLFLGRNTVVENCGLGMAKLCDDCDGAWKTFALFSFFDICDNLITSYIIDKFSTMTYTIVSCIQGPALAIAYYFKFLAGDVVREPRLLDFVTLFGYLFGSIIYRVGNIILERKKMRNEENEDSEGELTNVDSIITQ
Procedure, shortened: as §1

[5] = test system: non-expressing oocytes; type: cell-based, Xenopus laevis; settings: total [3H]CQ transport; for Uptake of [3H]CQ (% non-expressing oocyte control), trans-stimulation: non-expressing oocytes, normalised to the oocyte type control; for Uptake of [3H]CQ (% PfCRTDd2 control), trans-stimulation, non-expressing oocytes: mean ± SEM, SEM
Procedure, shortened: (§2)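 Oocytes (ten per treatment, ≥4 independent frogs/days) were preloaded by injecting VF-6 in 25 nL ND96 at pH 5.0, 5.5, 6.0 or 7.0, or Na^+-free choline buffer, then uptake run 1.5 h, 27.5 °C, ND96 pH 5.5 by default. Internal concentrations assumed ~400 nL oocyte volume.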

[6] = target: T1, PfCRT^3D7; assay: cell-based; type: cell-based
Procedure, shortened: as §2

[7] = target: T2, PfCRT^Dd2; assay: cell-based; type: cell-based; settings: […]; for activity at 45000 µM: [test solute]i = 45 mM (30 mM for some solutes due to solubility)
Procedure, shortened: as §2

[8] = target: T3, PfCRT^Ecu1110; assay: cell-based; type: cell-based; settings: […]
Procedure, shortened: as §2

[9] = target: T4, PfNT1 (Plasmodium falciparum, UniProt Q8IDM6); assay: cell-based; type: cell-based; settings: for activity at 5000 µM: total [3H]CQ transport
T4 construct: expressed in transfected cells; host or cells: Xenopus laevis oocytes (stage V-VI), cRNA-injected
T4 sequence (Q8IDM6 whole entry): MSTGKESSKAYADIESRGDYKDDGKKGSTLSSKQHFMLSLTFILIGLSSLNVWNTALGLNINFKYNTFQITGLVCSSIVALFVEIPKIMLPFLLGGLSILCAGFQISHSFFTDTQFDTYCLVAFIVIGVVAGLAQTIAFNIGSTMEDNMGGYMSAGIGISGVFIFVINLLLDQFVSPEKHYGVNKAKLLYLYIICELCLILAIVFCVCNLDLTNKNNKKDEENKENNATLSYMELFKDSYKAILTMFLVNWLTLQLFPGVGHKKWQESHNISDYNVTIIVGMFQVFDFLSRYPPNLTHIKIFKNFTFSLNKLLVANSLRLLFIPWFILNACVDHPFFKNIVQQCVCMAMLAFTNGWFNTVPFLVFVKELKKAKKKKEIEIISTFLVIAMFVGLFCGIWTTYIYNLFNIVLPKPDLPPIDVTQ
Procedure, shortened: as §2

[10] = test system: PfCRT; assay: Influx of VF-6 via PfCRT into the oocyte, solutes tested as potential co-substrates; type: cell-based, Plasmodium falciparum; design: key: X: Compounds that have been tested as potential co-substrates but are not required for influx of VF-6 via PfCRT into the oocyte; settings: X marks the solute
[11] = test system: PfCRT; assay: Potential co-substrates tested for influx of VF-6 via PfCRT into the oocyte; type: cell-based, Plasmodium falciparum; design: key: X: Compounds that have been tested as potential co-substrates but are not required for influx of VF-6 via PfCRT into the oocyte
[12] = Oocyte, mean ± SEM, SEM, read-out: Uptake of [3H]CQ (% PfCRTDd2 control), cis-inhibition, non-expressing oocytes
[13] = non-expressing oocytes, normalised to the oocyte type control, read-out: Uptake of [3H]CQ (% non-expressing oocyte control), cis-inhibition
[14] = PfCRT3D7 oocytes, normalised to the oocyte type control, read-out: Uptake of [3H]CQ (% PfCRT3D7 control), cis-inhibition
[15] = mean ± SEM, SEM, read-out: Uptake of [3H]CQ (% PfCRTDd2 control), cis-inhibition, PfCRT3D7
[16] = read-out: PfCRT-mediated [3H]CQ transport, cis-inhibition (% PfCRTDd2 control)
[17] = read-out: Uptake of [3H]CQ (% PfCRTDd2 control), cis-inhibition
[18] = read-out: Uptake of [3H]CQ (% PfCRTDd2 control), cis-inhibition, PfCRTDd2, SEM
[19] = read-out: [3H]CQ transport (% PfCRTDd2 control), cis-inhibition, PfCRTDd2, SEM
[20] = read-out: PfCRT-mediated [3H]CQ transport, cis-inhibition (% PfCRTEcu1110 control)
[21] = read-out: Uptake of [3H]CQ (% PfCRTDd2 control), cis-inhibition, PfCRTEcu1110, SEM
[22] = read-out: Uptake of [3H]CQ (% PfCRTEcu1110 control), cis-inhibition
[23] = read-out: [3H]CQ transport (% PfCRTEcu1110 control), cis-inhibition, PfCRTEcu1110, SEM

SMILES: CC(C)[C@H](N)C(=O)O [L-valine]
- inhibition at 500 µM [1, 12]: 2.7 ± 0.05%
- inhibition at 1000 µM [1, 12]: 2.5 ± 0.04%
- inhibition at 2000 µM [1, 12]: 2.8 ± 0.07%
- inhibition at 500 µM [1, 13]: 100 ± 4.8%
- inhibition at 1000 µM [1, 13]: 101 ± 6.2%
- inhibition at 2000 µM [1, 13]: 99 ± 6.2%
- inhibition at 500 µM [2, 14]: 99 ± 3.6%
- inhibition at 1000 µM [2, 14]: 99 ± 3.9%
- inhibition at 2000 µM [2, 14]: 100 ± 5.5%
- inhibition at 500 µM [2, 15]: 3.1 ± 0.07%
- inhibition at 1000 µM [2, 15]: 3.4 ± 0.01%
- inhibition at 2000 µM [2, 15]: 3.4 ± 0.04%
- inhibition at 500 µM [3, 16]: 98 ± 3.6%
- inhibition at 1000 µM [3, 16]: 98 ± 4.6%
- inhibition at 2000 µM [3, 16]: 93 ± 4.1%
- inhibition at 500 µM [3, 17]: 100 ± 2.6%
- inhibition at 1000 µM [3, 17]: 100 ± 2.2%
- inhibition at 500 µM [3, 18]: 100 ± 2.6%
- inhibition at 1000 µM [3, 18]: 100 ± 2.2%
- inhibition at 2000 µM [3, 18]: 95 ± 1.4%
- inhibition at 500 µM [3, 19]: 98 ± 3.6%
- inhibition at 1000 µM [3, 19]: 98 ± 4.6%
- inhibition at 500 µM [4, 20]: 98 ± 2.5%
- inhibition at 1000 µM [4, 20]: 95 ± 2.6%
- inhibition at 2000 µM [4, 20]: 94 ± 2.5%
- inhibition at 500 µM [4, 21]: 33 ± 1%
- inhibition at 1000 µM [4, 21]: 32 ± 1.3%
- inhibition at 2000 µM [4, 21]: 31 ± 1.6%
- inhibition at 500 µM [4, 22]: 100 ± 1.5%
- inhibition at 1000 µM [4, 22]: 97 ± 1.7%
- inhibition at 2000 µM [4, 22]: 96 ± 1.5%
- inhibition at 500 µM [4, 23]: 30 ± 0.6%
- inhibition at 1000 µM [4, 23]: 29 ± 1.4%
- inhibition at 2000 µM [4, 23]: 28 ± 0.4%
- Uptake of [3H]CQ (% non-expressing oocyte control), trans-stimulation ([5]; [test solute]i = 5 mM): 99 ± 4.1 % non-expressing oocyte control
- Uptake of [3H]CQ (% non-expressing oocyte control), trans-stimulation ([5]; [test solute]i = 45 mM (30 mM for some solutes due to solubility)): 100 ± 2.6 % non-expressing oocyte control
- Uptake of [3H]CQ (% PfCRTDd2 control), trans-stimulation, non-expressing oocytes ([5]; [test solute]i = 5 mM (intracellular)): 2.6 ± 0.08 % PfCRTDd2 control
- Uptake of [3H]CQ (% PfCRTDd2 control), trans-stimulation, non-expressing oocytes ([5]; [test solute]i = 45 mM (intracellular; 30 mM for some solutes due to solubility)): 2.7 ± 0.03 % PfCRTDd2 control
- activity at 5000 µM ([6]; PfCRT3D7 oocytes, [test solute]i = 5 mM, total [3H]CQ transport, normalised to the oocyte type control, read-out: Uptake of [3H]CQ (% PfCRT3D7 control), trans-stimulation): 98 ± 4.2%
- [3H]CQ transport (% PfCRT3D7 control), trans-stimulation, PfCRT3D7 ([6]; SEM): 0.3 ± 0.01 % PfCRT3D7 control
- activity at 5000 µM ([6]; [test solute]i = 5 mM (intracellular), PfCRT3D7 oocytes, normalised to oocyte type control, read-out: PfCRT-mediated [3H]CQ transport, trans-stimulation (% PfCRT3D7 control)): 96 ± 3.3%
- activity at 45000 µM ([6]; SEM, read-out: Uptake of [3H]CQ (% PfCRTDd2 control), trans-stimulation, PfCRT3D7): 3.3 ± 0.01%
- activity at 45000 µM ([6]; read-out: PfCRT-mediated [3H]CQ transport, trans-stimulation (% PfCRT3D7 control)): 96 ± 2.4%
- activity at 45000 µM ([6]; read-out: Uptake of [3H]CQ (% PfCRT3D7 control), trans-stimulation): 98 ± 3.7%
- activity at 5000 µM ([6]; total [3H]CQ transport, [test solute]i = 5 mM (intracellular), mean ± SEM, SEM, read-out: Uptake of [3H]CQ (% PfCRTDd2 control), trans-stimulation, PfCRT3D7): 3.3 ± 0.05%
- activity at 5000 µM ([7]; pH 5.5, read-out: PfCRT-mediated [3H]CQ transport, trans-stimulation (% PfCRTDd2 control), [test solute]i = 5 mM (intracellular), PfCRTDd2 oocytes, normalised to oocyte type control): 97 ± 4.2%
- activity at 5000 µM ([7]; pH 5.5, read-out: Uptake of [3H]CQ (% PfCRTDd2 control), trans-stimulation, PfCRTDd2, total [3H]CQ transport, [test solute]i = 5 mM (intracellular), mean ± SEM, SEM): 99 ± 3.2%
- activity at 5000 µM ([7]; pH 5.5, read-out: Uptake of [3H]CQ (% PfCRTDd2 control), trans-stimulation, PfCRTDd2 oocytes, [test solute]i = 5 mM, total [3H]CQ transport, normalised to the oocyte type control): 99 ± 3.2%
- activity at 45000 µM ([7]; pH 5.5, read-out: Uptake of [3H]CQ (% PfCRTDd2 control), trans-stimulation, PfCRTDd2 oocytes, total [3H]CQ transport, normalised to the oocyte type control): 97 ± 1.1%
- activity at 5000 µM ([7]; pH 5.5, read-out: [3H]CQ transport (% PfCRTDd2 control), trans-stimulation, PfCRTDd2, trans-stimulation, [test solute]i = 5 mM (injected), PfCRT-mediated component (background subtracted), mean ± SEM, SEM): 97 ± 4.2%
- activity at 45000 µM ([7]; pH 5.5, read-out: [3H]CQ transport (% PfCRTDd2 control), trans-stimulation, PfCRTDd2, trans-stimulation, PfCRT-mediated component (background subtracted), mean ± SEM, SEM): 95 ± 2.5%
- activity at 5000 µM ([8]; pH 5.5, read-out: PfCRT-mediated [3H]CQ transport, trans-stimulation (% PfCRTEcu1110 control), [test solute]i = 5 mM (intracellular), PfCRTEcu1110 oocytes, normalised to oocyte type control): 96 ± 3.3%
- activity at 5000 µM ([8]; pH 5.5, read-out: Uptake of [3H]CQ (% PfCRTEcu1110 control), trans-stimulation, PfCRTEcu1110 oocytes, [test solute]i = 5 mM, total [3H]CQ transport, normalised to the oocyte type control): 98 ± 3.6%
- activity at 45000 µM ([8]; pH 5.5, read-out: Uptake of [3H]CQ (% PfCRTEcu1110 control), trans-stimulation, PfCRTEcu1110 oocytes, [test solute]i = 45 mM (30 mM for some solutes due to solubility), total [3H]CQ transport, normalised to the oocyte type control): 100 ± 2.5%
- activity at 5000 µM ([8]; read-out: Uptake of [3H]CQ (% PfCRTDd2 control), trans-stimulation, PfCRTEcu1110, total [3H]CQ transport, [test solute]i = 5 mM (intracellular), mean ± SEM, SEM): 35 ± 1.6%
- activity at 45000 µM ([8]; read-out: Uptake of [3H]CQ (% PfCRTDd2 control), trans-stimulation, PfCRTEcu1110, total [3H]CQ transport, [test solute]i = 45 mM (intracellular; 30 mM for some solutes due to solubility), mean ± SEM, SEM): 36 ± 1.4%
- activity at 5000 µM ([9]; PfNT1 oocytes, [test solute]i = 5 mM, normalised to the oocyte type control, read-out: Uptake of [3H]CQ (% PfNT1 control), trans-stimulation): 99 ± 2.9%
- activity at 45000 µM ([9]; SEM, read-out: Uptake of [3H]CQ (% PfCRTDd2 control), trans-stimulation, PfNT1): 2.9 ± 0.04%
- activity at 45000 µM ([9]; read-out: Uptake of [3H]CQ (% PfNT1 control), trans-stimulation): 100 ± 3.2%
- activity at 5000 µM ([9]; [test solute]i = 5 mM (intracellular), mean ± SEM, SEM, read-out: Uptake of [3H]CQ (% PfCRTDd2 control), trans-stimulation, PfNT1): 2.7 ± 0.01%
- Compounds that have been tested as potential co-substrates but are not required for influx of VF-6 via PfCRT into the oocyte [10]: X
- Tested as potential co-substrate but not required for influx of VF-6 via PfCRT into the oocyte [11]: X
